Measurements as given in US9877969B2, “Treatments with triazines” (CEVA SANTE ANIMALE, priority 2012, dated 2018).

Key:
Assay type in all cases: in vivo
[1] = Local and general tolerance of a single intramuscular injection in 3-day-old piglets (Example A)
Description: (§1) This target animal safety and efficacy study was conducted on a farm with a known history of cocciodiosis. The main objective was to study the safety and efficacy of intramuscular injection of toltrazuril in comparison to the standard oral application. • Group 1: 8 piglets 3 days old were injected by a single intramuscular dose of toltrazuril (dose=20 mg toltrazuril per kg body weight equivalent to 0.4 mL/kg body weight) on SD0. • Group 2: 8 piglets 3 days old were injected by one intramuscular dose of toltrazuril (60 mg toltrazuril per kg body weight equivalent to 1.2 mL/Kg body weight) on SD0. • Group 3: 8 piglets 3 days old were dosed orally with the standard commercial formulation of toltrazuril, Cevazuril® (dose=20 mg toltrazuril per kg body weight equivalent to 0.4 mL/Kg body weight) on SD0. • Group 4: 12 piglets 3 days old, left untreated.
(§2) All four (4) groups of piglets were injected on SD0 with iron (Gleptosil®) at the dose rate of 1 ml per piglet.
(§3) The local and general tolerances, as well as body weight development, were assessed.

[2] = Body weight development of piglets on a farm with a known history of coccidiosis (Example A)
Description: as §1, §2, §3

[3] = Local and general tolerance in 2-day-old piglets (Example B); details: all tested doses (i.m. 20 and 40 mg/kg)
Description: (§4) • Group 1: 10 piglets 2 days old were injected with one intramuscular dose of toltrazuril C629 (dose=20 mg toltrazuril per kg body weight equivalent to 0.4 mL/Kg body weight) on SD0. • Group 2: 11 piglets 2 days old were injected with one intramuscular dose of toltrazuril C629 (dose=40 mg toltrazuril per kg body weight equivalent to 0.8 mL/kg body weight) on SD0. • Group 3: 9 piglets 2 days old were dosed orally with the standard commercial formulation of toltrazuril, Cevazuril® (dose=20 mg toltrazuril per kg body weight equivalent to 0.4 mL/Kg body weight) on SD0. • Group 4: 8 piglets, left untreated.
(§5) All four (4) groups of piglets were injected on SD0 with iron injection (Gleptosil®) at the dose rate of 1 ml per piglet. 3 days after treatment (on SD3), the piglets were orally challenged with a characterized strain of Isospora suis.
(§6) The following study parameters were used to assess the efficacy of the test products: • Local and general tolerance (for Groups 1 and 2); • Occurrence of diarrhea and fecal consistency; • Oocyst excretion; • Body weight development; and • Serum concentrations of toltrazuril and its metabolite toltrazuril sulfone (e.g., ponazuril) in Groups 1, 2 and 3. Results

[4] = system: Isospora suis; experiment: Anti-coccidial efficacy in piglets orally challenged with Isospora suis (Example B); details: single i.m. 20 or 40 mg/kg (G1, G2)
Description: as §4, §5, §6

[5] = Pharmacokinetics: serum concentrations of toltrazuril and toltrazuril sulfone in 2-day-old piglets (Example B); details: after intramuscular application
Description: as §4, §5, §6

Cc1cc(-n2c(=O)[nH]c(=O)n(C)c2=O)ccc1Oc1ccc(SC(F)(F)F)cc1 [toltrazuril]
Time to disappearance of local reaction (edema) post injection ([1]; intramuscular 1.2 mL/Kg body weight): less than 1 week
Local reaction ([1]; intramuscular 1.2 mL/Kg body weight (60 mg/kg)): limited local reaction (edema) in some piglets
General tolerance ([1]; single intramuscular doses up to 60 mg/kg, 3-day-old piglets): well tolerated
Pain at injection ([1]; single intramuscular injection, 3-day-old piglets): No pain
Weight gain versus control non-treated piglets ([2]; intramuscularly treated piglets, at SD0+29 days): +2 kg
Body weight development ([2]; treated piglets): normal
Tolerance [3]: well tolerated
Fecal consistency ([4]; Isospora suis challenge on SD3): unchanged
Oocyst excretion ([4]; Isospora suis challenge on SD3): No oocyst excretion
Weight gain versus control animals (G4) ([4]; infected animals): gained more weight than the control animals
Absorption [5]: well absorbed
